Measurements published in paper PMC6273138, “Inhibitory Effects of Aschantin on Cytochrome P450 and Uridine 5′-diphospho-glucuronosyltransferase Enzyme Activities in Human Liver Microsomes” (Molecules, 2016).
Like-named read-outs stand apart in the source and are kept apart here.

Assays:
CYP2C19 = CYP2C19 (Homo sapiens, UniProt P33261); assay: Mechanism-based (time- and concentration-dependent) inactivation of CYP2C19 in human liver microsomes; assay type: in vitro ADME; settings: CYP2C19-mediated [S]-mephenytoin 4′-hydroxylation
Experimental: (§1) The microsomes (1 mg/mL) were pre-incubated with various concentrations of aschantin in 50 mM potassium phosphate buffer (pH 7.4) in the presence of NADPH. Aliquots (10 µL) of the incubated mixtures were withdrawn at 5, 10, 15, and 20 min after incubation commenced and added to other tubes containing the CYP substrates (2 µM amodiaquine for CYP2C8, 10 µM diclofenac for CYP2C9, 100 µM [S]-mephenytoin for CYP2C19, or 2 µM midazolam for CYP3A4), 1 mM NADPH, 50 mM potassium phosphate buffer (pH 7.4), and 10 mM MgCl2, in 90 µL reaction mixtures. […] Aliquots (5 µL) of the diluted supernatants were analyzed by LC-MS/MS, as described above.

UGT1A1 = target: T1, UGT1A1 (Homo sapiens, UniProt P22309); assay: UGT1A1-catalyzed SN-38 glucuronidation inhibition in pooled human liver microsomes; assay type: in vitro ADME; settings: 0.5 µM SN-38, pooled human liver microsomes
T1 construct: using pooled human liver microsomes incubated with the cocktail of UGT substrates; tissue Corning Life Sciences 452161; host or cells: pooled human liver microsomes
T1 sequence (P22309 26-533): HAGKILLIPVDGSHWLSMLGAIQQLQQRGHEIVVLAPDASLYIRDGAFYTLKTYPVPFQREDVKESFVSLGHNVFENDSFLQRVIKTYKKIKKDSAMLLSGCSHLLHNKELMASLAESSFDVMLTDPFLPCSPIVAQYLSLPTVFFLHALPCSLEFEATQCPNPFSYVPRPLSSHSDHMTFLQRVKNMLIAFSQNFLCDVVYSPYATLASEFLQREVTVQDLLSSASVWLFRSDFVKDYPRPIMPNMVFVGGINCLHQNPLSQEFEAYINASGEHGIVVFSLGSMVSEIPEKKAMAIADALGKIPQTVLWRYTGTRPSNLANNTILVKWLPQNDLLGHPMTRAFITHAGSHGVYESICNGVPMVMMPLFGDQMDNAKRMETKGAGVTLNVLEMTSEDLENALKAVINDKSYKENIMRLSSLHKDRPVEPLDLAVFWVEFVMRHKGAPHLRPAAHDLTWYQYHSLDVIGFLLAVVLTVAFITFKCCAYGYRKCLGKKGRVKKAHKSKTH
Experimental: (§2) The extents of aschantin on UGT1A1, UGT1A3, UGT1A4, UGT1A6, UGT1A9, and UGT2B7 were evaluated by LC-MS/MS, using pooled human liver microsomes incubated with the cocktail of UGT substrates. The method was modified from that of Joo et al..
(§3) The metabolites formed from the six UGT cocktail substrates were simultaneously measured using the LC-MS/MS method. […] The mass spectrometer was equipped with an ESI source and was operated in both positive and negative ion modes. […] Each metabolite was quantified via SRM in the negative ion (chenodeoxycholic acid 24-acyl-β-glucuronide, 567.2 > 391.0; mycophenolic acid glucuronide, 495.2 > 318.9; propofol glucuronide, 353.3 > 177.1) and positive ion (SN-38 glucuronide, 569.0 > 393.0; trifluoperazine glucuronide, 584.2 > 408.1; N-acetylserotonin-β-D-glucuronide, 395.2 > 219.0; naloxone 3-β-D-glucuronide, 504.0 > 310.0; meloxicam, 352.0 > 115.1) modes.

CYP2A6 = target: T2, CYP2A6 (Homo sapiens, UniProt P11509); assay: CYP2A6-catalyzed coumarin 7-hydroxylase inhibition in pooled human liver microsomes
T2 sequence (P11509 1-494): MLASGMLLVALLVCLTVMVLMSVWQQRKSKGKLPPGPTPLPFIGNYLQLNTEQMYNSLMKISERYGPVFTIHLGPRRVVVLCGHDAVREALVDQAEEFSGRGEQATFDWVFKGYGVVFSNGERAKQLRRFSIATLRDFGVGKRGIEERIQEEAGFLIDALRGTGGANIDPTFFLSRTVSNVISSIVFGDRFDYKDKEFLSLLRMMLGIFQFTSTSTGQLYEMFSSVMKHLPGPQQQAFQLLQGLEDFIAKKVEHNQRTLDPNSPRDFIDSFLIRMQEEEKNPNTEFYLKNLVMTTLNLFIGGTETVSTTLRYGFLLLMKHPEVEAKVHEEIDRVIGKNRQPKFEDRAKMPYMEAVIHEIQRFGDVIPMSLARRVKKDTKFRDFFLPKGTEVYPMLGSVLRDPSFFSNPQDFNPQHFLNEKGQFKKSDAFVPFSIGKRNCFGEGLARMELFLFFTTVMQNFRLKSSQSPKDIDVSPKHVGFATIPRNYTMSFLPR

UGT1A4 = target: T3, UGT1A4 (Homo sapiens, UniProt P22310); assay: UGT1A4-catalyzed trifluoperazine N-glucuronidation inhibition in pooled human liver microsomes; assay type: in vitro ADME
T3 construct: using pooled human liver microsomes incubated with the cocktail of UGT substrates; tissue Corning Life Sciences 452161; host or cells: pooled human liver microsomes
T3 sequence (P22310 29-534): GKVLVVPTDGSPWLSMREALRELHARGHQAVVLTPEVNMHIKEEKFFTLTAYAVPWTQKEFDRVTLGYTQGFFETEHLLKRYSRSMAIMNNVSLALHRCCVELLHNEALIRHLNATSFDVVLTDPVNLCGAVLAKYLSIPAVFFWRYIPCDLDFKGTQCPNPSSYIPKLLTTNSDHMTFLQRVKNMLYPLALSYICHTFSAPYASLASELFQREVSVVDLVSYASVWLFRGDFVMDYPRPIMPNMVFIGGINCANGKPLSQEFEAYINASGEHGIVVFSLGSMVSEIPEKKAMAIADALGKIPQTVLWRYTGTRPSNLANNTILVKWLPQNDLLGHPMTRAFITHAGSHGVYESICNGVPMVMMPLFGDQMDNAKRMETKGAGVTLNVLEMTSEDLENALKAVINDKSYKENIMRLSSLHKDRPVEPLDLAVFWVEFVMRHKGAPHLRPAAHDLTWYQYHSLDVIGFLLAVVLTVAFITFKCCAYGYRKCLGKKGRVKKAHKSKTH
Experimental: as §2, §3

CYP2C9 = CYP2C9 (Homo sapiens, UniProt P11712); assay: Mechanism-based (time- and concentration-dependent) inactivation of CYP2C9 in human liver microsomes; assay type: in vitro ADME; settings: CYP2C9-catalyzed diclofenac 4′-hydroxylation
Experimental: as §1

Sequence of CYP2C9 (P11712 whole entry): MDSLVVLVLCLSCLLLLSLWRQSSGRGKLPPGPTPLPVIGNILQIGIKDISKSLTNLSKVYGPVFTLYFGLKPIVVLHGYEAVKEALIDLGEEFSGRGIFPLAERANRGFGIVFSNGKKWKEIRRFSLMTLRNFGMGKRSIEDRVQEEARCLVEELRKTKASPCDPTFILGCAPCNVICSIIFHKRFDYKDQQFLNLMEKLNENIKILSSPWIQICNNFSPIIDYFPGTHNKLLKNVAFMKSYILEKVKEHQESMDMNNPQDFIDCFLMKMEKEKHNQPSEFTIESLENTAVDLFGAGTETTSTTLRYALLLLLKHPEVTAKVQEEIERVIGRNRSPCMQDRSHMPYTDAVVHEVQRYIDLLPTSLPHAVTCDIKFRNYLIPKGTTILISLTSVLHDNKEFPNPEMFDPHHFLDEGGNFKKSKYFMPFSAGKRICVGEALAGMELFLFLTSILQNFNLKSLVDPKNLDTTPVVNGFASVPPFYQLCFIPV
Sequence of CYP2C19 (P33261 whole entry): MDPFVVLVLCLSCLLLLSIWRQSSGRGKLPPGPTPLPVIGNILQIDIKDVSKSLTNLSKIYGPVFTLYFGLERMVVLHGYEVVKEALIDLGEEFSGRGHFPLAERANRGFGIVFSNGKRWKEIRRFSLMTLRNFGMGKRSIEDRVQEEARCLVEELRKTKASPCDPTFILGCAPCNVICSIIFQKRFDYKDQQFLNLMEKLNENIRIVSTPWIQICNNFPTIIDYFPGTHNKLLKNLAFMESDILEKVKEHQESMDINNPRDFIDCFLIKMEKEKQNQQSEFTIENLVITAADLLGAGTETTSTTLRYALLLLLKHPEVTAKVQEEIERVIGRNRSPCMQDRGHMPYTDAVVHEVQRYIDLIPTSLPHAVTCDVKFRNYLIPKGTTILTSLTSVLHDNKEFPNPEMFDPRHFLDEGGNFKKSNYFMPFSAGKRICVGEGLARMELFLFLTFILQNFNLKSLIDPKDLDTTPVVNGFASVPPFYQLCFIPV

Ki (CYP2C19; read-out: Ki (apparent)): 5.8 µM
kinact (CYP2C19; pH 7.4, probe [S]-mephenytoin (100 µM)): 0.0008 s⁻¹
IC50 (UGT1A1): 132 µM
IC50 (CYP2A6): > 100 µM
inhibition of CYP2A6-mediated coumarin 7-hydroxylation (CYP2A6; aschantin at 100 µM, human liver microsomes): negligibly inhibited
IC50 (CYP2A6; read-out: IC50 With Pre-incubation, CYP2A6 coumarin 7-hydroxylase, 2.5 µM coumarin, 30 min pre-incubation with microsomes and NADPH): > 100 µM
IC50 (UGT1A4; UGT1A4-catalyzed trifluoperazine N-glucuronidation, 0.5 µM trifluoperazine, pooled human liver microsomes): > 200 µM
inhibition of UGT1A4-catalyzed trifluoperazine N-glucuronidation (UGT1A4; aschantin at 200 µM, human liver microsomes): not inhibited
Ki (CYP2C9; read-out: Ki (apparent)): 3.7 µM
kinact (CYP2C9; pH 7.4, probe diclofenac (10 µM)): 0.000733 s⁻¹
Compound: COc1cc([C@H]2OC[C@H]3[C@@H]2CO[C@@H]3c2ccc3c(c2)OCO3)cc(OC)c1OC [Aschantin]
